Assay results reported in PMC6491818, “Novel 4-Acrylamido-Quinoline Derivatives as Potent PI3K/mTOR Dual Inhibitors: The Design, Synthesis, and in vitro and in vivo Biological Evaluation” (Frontiers in Chemistry, 2019).

Key:
[1] = test system: colorectal cancer HCT116 cell line; experiment: Anti-proliferative SRB assay, HCT116; format: cell-based; settings: 72 h exposure; for GI50: Homo sapiens, HCT-116, HCT116 cells; for GI50 HCT116: HCT116 cells
Method: (§1) The anti-proliferative activity of compounds was evaluated by sulforhodamin B (SRB) assay. After being cultured for 10 h, cells in 96-well plates were subjected to 72 h-exposure to serially diluted compound solutions. Cells were washed with PBS and fixed with trichloroacetic acid (10%, W/V) at 4°C for 1 h. Then, cells were successively washed with PBS, stained for 0.5 h with SRB (0.4%, dissolved in 1% acetic acid), and washed by 1% acetic acid for 5 times. Protein-bound dye was extracted with unbuffered Tris base (10 mmol). After calculating the percent inhibition from absorbance, measured at 515 nm with a multiscan spectrum (Thermo Electron Co., Vantaa, Finland), the curves were fitted in Graphpad Prism 5 to give GI50 values.

[2] = test system: prostate cancer PC3 cell line; experiment: Anti-proliferative SRB assay, PC3; format: cell-based; settings: PC3 cells, 72 h exposure
Method: as §1

[3] = target: PI3Kα (Homo sapiens, UniProt P42336); experiment: PI3Kα enzymatic assay (Kinase-Glo Luminescent Kinase assay); format: biochemical
Chain of PI3Kα (P42336 whole entry): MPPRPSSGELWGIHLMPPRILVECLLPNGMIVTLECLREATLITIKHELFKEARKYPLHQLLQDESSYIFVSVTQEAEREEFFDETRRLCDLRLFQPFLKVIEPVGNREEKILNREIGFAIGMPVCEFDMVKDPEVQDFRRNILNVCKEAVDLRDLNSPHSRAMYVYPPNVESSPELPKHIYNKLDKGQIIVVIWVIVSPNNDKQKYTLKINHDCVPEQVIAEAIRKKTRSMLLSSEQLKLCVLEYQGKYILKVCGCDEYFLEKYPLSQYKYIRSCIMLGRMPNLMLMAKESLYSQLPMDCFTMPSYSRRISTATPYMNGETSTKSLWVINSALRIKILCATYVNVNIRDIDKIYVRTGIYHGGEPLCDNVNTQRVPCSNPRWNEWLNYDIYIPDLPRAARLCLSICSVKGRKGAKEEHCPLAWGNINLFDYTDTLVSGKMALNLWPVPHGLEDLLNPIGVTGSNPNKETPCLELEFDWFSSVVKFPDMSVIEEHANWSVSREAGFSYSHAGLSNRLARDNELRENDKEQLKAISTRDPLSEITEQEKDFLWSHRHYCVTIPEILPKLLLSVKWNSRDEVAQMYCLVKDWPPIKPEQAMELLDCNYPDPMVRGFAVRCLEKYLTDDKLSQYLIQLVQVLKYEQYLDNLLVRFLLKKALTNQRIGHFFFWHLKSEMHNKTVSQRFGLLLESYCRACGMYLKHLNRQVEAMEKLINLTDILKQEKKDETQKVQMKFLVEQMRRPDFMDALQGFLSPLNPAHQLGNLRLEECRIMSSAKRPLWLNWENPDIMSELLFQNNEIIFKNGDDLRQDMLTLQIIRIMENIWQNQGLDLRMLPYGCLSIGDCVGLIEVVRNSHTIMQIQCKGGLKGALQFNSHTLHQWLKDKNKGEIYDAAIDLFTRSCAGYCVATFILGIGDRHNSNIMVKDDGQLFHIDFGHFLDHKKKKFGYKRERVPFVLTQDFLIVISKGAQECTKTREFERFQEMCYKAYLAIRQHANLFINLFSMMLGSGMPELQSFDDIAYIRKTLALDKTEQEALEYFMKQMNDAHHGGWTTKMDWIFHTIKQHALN
Chain of PI3Kα (P27986 whole entry partner): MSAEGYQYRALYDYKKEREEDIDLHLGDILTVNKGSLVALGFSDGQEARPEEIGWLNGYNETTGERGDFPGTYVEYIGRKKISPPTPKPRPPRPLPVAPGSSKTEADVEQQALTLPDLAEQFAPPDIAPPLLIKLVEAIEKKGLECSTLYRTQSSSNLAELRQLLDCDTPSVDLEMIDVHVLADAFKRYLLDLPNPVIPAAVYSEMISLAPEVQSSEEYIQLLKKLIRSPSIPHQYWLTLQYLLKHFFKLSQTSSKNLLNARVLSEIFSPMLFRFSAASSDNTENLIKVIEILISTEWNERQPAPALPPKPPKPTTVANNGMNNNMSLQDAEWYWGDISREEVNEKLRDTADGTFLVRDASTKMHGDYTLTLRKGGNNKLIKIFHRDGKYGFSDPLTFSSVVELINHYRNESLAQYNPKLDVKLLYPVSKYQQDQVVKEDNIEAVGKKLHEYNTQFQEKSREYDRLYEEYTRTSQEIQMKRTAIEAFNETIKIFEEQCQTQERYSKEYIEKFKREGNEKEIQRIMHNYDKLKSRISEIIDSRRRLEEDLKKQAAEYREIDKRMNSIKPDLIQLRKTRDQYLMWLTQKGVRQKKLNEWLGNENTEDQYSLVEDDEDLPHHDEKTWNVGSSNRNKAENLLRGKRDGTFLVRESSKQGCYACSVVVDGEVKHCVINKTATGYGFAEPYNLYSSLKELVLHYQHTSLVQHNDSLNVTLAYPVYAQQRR
Method: (§2) Kinase-Glo Luminescent Kinase assay (Promega) was performed to determine the PI3Kα inhibitory activity, while ADP-Glo Luminescent assay (Promega) was performed to identify the inhibitory activity against PI3Kβ, γ, or δ. The kinase buffer was composed of HEPES (50 mM, pH 7.5), MgCl2 (3 mM), EGTA (1 mM), NaCl (100 mM), CHAPS (0.03%) and DTT (2 mM). The serially diluted compound solutions (2.5 mL) were successively added to a 384-well plate. Afterwards, the solution of kinase (2.5 mL) in the kinase buffer and the solution of substrate (5 mL) in the kinase buffer containing PIP2 and ATP were added to each well of the assay plate for starting the reaction. Kinase buffer was added instead to the control well without enzyme. […] After being incubated at room temperature for 1 h, Kinase-Glo reagent (10 mL) was added to each well of the PI3Kα assay plate to quench the reaction. […] The mixture was treated briefly with centrifuge, shaken slowly, and equilibrated for 40 min. Kinase Detection reagent (10 mL) was added to each well. Before reading on a plate reader for luminescence, the resultant mixture was incubated at room temperature for 1 h. After calculating the percent inhibition from the RLU values, the curves were fitted in Graphpad Prism 5 to give IC50 values.

[4] = target: PI3Kγ (Homo sapiens, UniProt P48736); experiment: PI3Kγ enzymatic assay (ADP-Glo Luminescent assay); format: biochemical
Chain of PI3Kγ (P48736 whole entry): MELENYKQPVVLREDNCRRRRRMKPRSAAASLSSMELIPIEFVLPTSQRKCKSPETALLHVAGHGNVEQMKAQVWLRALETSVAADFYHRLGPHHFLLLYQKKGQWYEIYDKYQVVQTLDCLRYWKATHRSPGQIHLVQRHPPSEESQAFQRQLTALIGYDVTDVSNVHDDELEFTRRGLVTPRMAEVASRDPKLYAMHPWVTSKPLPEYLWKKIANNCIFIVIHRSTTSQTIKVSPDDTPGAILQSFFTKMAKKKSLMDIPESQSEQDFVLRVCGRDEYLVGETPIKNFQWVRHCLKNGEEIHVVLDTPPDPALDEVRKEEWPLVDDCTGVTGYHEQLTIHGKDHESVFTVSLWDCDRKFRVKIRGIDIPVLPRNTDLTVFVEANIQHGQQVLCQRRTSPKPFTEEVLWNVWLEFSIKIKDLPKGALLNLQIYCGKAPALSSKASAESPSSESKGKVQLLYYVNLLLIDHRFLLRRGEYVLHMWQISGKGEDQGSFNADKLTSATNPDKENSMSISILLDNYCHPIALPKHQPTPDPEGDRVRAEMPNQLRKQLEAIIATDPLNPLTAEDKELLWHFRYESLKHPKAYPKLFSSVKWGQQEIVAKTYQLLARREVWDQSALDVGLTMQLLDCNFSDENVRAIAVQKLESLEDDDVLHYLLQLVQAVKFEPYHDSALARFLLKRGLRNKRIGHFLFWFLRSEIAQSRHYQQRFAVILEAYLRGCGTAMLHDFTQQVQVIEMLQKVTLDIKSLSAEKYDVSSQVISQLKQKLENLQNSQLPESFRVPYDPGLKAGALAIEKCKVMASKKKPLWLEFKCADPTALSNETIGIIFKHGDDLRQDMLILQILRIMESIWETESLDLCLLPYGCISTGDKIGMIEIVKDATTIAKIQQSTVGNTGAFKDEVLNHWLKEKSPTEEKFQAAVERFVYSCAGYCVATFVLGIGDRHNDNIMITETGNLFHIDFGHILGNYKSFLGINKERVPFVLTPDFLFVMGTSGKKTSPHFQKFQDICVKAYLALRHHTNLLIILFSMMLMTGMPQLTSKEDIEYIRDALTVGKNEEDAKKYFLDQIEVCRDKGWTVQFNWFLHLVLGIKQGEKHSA
Method: Kinase-Glo Luminescent Kinase assay (Promega) was performed to determine the PI3Kα inhibitory activity, while ADP-Glo Luminescent assay (Promega) was performed to identify the inhibitory activity against PI3Kβ, γ, or δ. The kinase buffer was composed of HEPES (50 mM, pH 7.5), MgCl2 (3 mM), EGTA (1 mM), NaCl (100 mM), CHAPS (0.03%) and DTT (2 mM). The serially diluted compound solutions […] were successively added to a 384-well plate. Afterwards, the solution of kinase […] in the kinase buffer and the solution of substrate (5 mL) in the kinase buffer containing PIP2 and ATP were added to each well of the assay plate for starting the reaction. Kinase buffer was added instead to the control well without enzyme. The final concentrations of PI3Kα, PI3Kβ, PI3Kγ, PI3Kδ, PIP2, and ATP in corresponding kinase reaction mixture were 1.65 nM, 4.8 nM, 7.6 nM, 5.7 nM, […], respectively. After being incubated at room temperature for 1 h, Kinase-Glo reagent […] was added to each well of the PI3Kα assay plate to quench the reaction. Subsequently, the mixture needs to be mixed briefly with centrifuge and shaken slowly for 15 min before being read on a plate reader for luminescence. As for PI3Kβ, γ, or δ, reaction mixture (5 mL) was transferred to a new 384-plate and ADP-Glo reagent (5 mL) was added for stopping the reaction. The mixture was treated briefly with centrifuge, shaken slowly, and equilibrated for 40 min. Kinase Detection reagent […] was added to each well. Before reading on a plate reader for luminescence, the resultant mixture was incubated at room temperature for 1 h. After calculating the percent inhibition from the RLU values, the curves were fitted in Graphpad Prism 5 to give IC50 values.

[5] = target: mTOR (1362-end, Millipore) (Homo sapiens, UniProt P42345); experiment: mTOR enzymatic assay (Lance Ultra assay); format: biochemical
Chain of mTOR (1362-end, Millipore) (P42345 1362-2549 limits assumed): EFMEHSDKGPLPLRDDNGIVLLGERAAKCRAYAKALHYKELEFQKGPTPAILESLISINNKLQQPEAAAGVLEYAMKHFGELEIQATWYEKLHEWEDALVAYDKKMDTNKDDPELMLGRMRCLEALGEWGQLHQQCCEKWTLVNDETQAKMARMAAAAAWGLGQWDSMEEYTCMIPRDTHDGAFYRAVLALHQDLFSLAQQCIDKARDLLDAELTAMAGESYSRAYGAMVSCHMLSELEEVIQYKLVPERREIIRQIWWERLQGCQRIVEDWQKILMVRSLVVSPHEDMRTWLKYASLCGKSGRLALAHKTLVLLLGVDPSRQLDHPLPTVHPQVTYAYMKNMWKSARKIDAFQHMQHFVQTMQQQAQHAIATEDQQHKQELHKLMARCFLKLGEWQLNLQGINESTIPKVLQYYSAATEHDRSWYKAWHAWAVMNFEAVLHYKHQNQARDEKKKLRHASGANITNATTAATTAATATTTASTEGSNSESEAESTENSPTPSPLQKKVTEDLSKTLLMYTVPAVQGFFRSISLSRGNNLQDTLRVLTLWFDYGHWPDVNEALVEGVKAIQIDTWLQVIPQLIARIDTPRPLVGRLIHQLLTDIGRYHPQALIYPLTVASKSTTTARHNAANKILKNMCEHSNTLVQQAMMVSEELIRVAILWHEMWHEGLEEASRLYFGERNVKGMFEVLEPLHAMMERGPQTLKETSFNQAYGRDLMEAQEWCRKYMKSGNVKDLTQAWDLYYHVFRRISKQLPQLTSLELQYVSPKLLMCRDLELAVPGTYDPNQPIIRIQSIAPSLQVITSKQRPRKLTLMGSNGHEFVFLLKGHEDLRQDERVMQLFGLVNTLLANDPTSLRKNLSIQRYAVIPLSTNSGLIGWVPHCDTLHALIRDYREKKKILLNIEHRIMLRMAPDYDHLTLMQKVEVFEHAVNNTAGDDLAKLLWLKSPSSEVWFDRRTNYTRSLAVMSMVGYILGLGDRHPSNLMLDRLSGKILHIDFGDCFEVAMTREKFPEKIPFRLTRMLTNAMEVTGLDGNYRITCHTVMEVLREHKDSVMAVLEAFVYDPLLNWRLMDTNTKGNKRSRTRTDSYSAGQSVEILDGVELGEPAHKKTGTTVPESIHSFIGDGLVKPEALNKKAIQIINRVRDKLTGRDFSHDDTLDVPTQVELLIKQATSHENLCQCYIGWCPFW
Method: The kinase buffer was composed of HEPES (50 mM, pH 7.5), MgCl2 (10 mM), EGTA (1 mM), MnCl2 (3 mM), Tween-20 (0.01%) and DTT (2 mM). The solution of substrate in the kinase buffer contained ULight-4E-BP1 peptide (Thr37/46, PE) and ATP. […] After being incubated at room temperature for 1 h, kinase detection buffer (10 mL) containing EDTA and Eu-anti-phospho-4E-BP1 antibody (Thr37/46, PE) was added to each well of the assay plate. Before reading on a plate reader, the mixture needs to be mixed briefly with centrifuge and then allowed to equilibrate for 1 h. After calculating the percent inhibition from Lance signal, the curves were fitted in Graphpad Prism 5 to give IC50 values.

[6] = target: PI3Kβ (Homo sapiens, UniProt P42338); experiment: PI3Kβ enzymatic assay (ADP-Glo Luminescent assay); format: biochemical
Method: as §2

[7] = target: PI3Kδ (Homo sapiens, UniProt O00329); experiment: PI3Kδ enzymatic assay (ADP-Glo Luminescent assay); format: biochemical
Method: as §2

SMILES	GI50 [1] [nM]	GI50 ([2]; Homo sapiens, PC-3, 72 h) [nM]	IC50 [3] [nM]	IC50 [4] [nM]	GI50 HCT116 [1]	GI50 [2] [nM]	IC50 [5] [nM]	IC50 [6] [nM]	IC50 [7] [nM]
COc1ncc(-c2ccc3nccc(/C=C/C(=O)N4CCC(CO)CC4)c3c2)cc1NS(=O)(=O)c1ccc(F)cc1F [8m, (E)-2,4-difluoro-N-(5-(4-(3-(4-(hydroxymethyl)piperidin-1-yl)-3-oxoprop-1-en-1-yl)quinolin-6-yl)-2-methoxypyridin-3-yl)benzenesulfonamide]	1290	2560	0.68						
COc1ncc(-c2ccc3nccc(/C=C/C(=O)NC4CC4)c3c2)cc1NS(=O)(=O)c1ccc(F)cc1F [8d, (E)-N-cyclopropyl-3-(6-(5-((2,4-difluorophenyl)sulfonamido)-6-methoxypyridin-3-yl)quinolin-4-yl)acrylamide]	1560	1870	1.03						
COc1ncc(-c2ccc3nccc(/C=C/C(=O)N4CCCC(O)C4)c3c2)cc1NS(=O)(=O)c1ccc(F)cc1F (stereo not shown) [8l, (E)-2,4-difluoro-N-(5-(4-(3-(3-hydroxypiperidin-1-yl)-3-oxoprop-1-en-1-yl)quinolin-6-yl)-2-methoxypyridin-3-yl)benzenesulfonamide]	1560	1310	0.75						
COc1ncc(-c2ccc3nccc(/C=C/C(=O)NC(C)(C)C)c3c2)cc1NS(=O)(=O)c1ccc(F)cc1F [8a, (E)-N-(tert-butyl)-3-(6-(5-((2,4-difluorophenyl)sulfonamido)-6-methoxypyridin-3-yl)quinolin-4-yl)acrylamide]	700	1900	0.63						
COc1ncc(-c2ccc3nccc(-c4ccnnc4)c3c2)cc1NS(=O)(=O)c1ccc(F)cc1F [GSK2126458, reference compound]	180	220		0.44					
COc1ncc(-c2ccc3nccc(/C=C/C(=O)NC4CCC4)c3c2)cc1NS(=O)(=O)c1ccc(F)cc1F [8e, (E)-N-cyclobutyl-3-(6-(5-((2,4-difluorophenyl)sulfonamido)-6-methoxypyridin-3-yl)quinolin-4-yl)acrylamide]	1250	1480	1.43						
COc1ncc(-c2ccc3nccc(/C=C/C(=O)N4CCC(O)CC4)c3c2)cc1NS(=O)(=O)c1ccc(F)cc1F [8k, (E)-2,4-difluoro-N-(5-(4-(3-(4-hydroxypiperidin-1-yl)-3-oxoprop-1-en-1-yl)quinolin-6-yl)-2-methoxypyridin-3-yl)benzenesulfonamide]	320	< 500	0.79		sub-micromolar	280			
COc1ncc(-c2ccc3ncccc3c2)cc1NS(=O)(=O)c1ccc(F)cc1F [compound 10, 2,4-Difluoro-N-(2-methoxy-5-(quinolin-6-yl)pyridin-3-yl)benzenesulfonamide]	3670	7160	14.3						
COc1ncc(-c2ccc3nccc(/C=C/C(=O)N4CCCC4)c3c2)cc1NS(=O)(=O)c1ccc(F)cc1F [8f, (E)-2,4-difluoro-N-(2-methoxy-5-(4-(3-oxo-3-(pyrrolidin-1-yl)prop-1-en-1-yl)quinolin-6-yl)pyridin-3-yl)benzenesulfonamide]	1460	950	0.62						
COc1ncc(-c2ccc3nccc(/C=C/C(=O)NCCN4CCOCC4)c3c2)cc1NS(=O)(=O)c1ccc(F)cc1F [8n, (E)-3-(6-(5-((2,4-difluorophenyl)sulfonamido)-6-methoxypyridin-3-yl)quinolin-4-yl)-N-(2-morpholinoethyl)acrylamide]	1790	1430	1.1						
COc1ncc(-c2ccc3nccc(/C=C/C(=O)Nc4ccccc4)c3c2)cc1NS(=O)(=O)c1ccc(F)cc1F [8o, (E)-3-(6-(5-((2,4-difluorophenyl)sulfonamido)-6-methoxypyridin-3-yl)quinolin-4-yl)-N-phenylacrylamide]	1520	4830	1.8						
COc1ncc(-c2ccc3nccc(/C=C/C(=O)N(C)CCO)c3c2)cc1NS(=O)(=O)c1ccc(F)cc1F [8c, (E)-3-(6-(5-((2,4-difluorophenyl)sulfonamido)-6-methoxypyridin-3-yl)quinolin-4-yl)-N-(2-hydroxyethyl)-N-methylacrylamide]	960	< 500	0.67	0.5	sub-micromolar	450	1.2	1.2	1.3
COc1ncc(-c2ccc3nccc(/C=C/C(=O)N4CCOCC4)c3c2)cc1NS(=O)(=O)c1ccc(F)cc1F [8h, (E)-2,4-difluoro-N-(2-methoxy-5-(4-(3-morpholino-3-oxoprop-1-en-1-yl)quinolin-6-yl)pyridin-3-yl)benzenesulfonamide]	510	< 500	0.53		sub-micromolar	360			
COc1ncc(-c2ccc3nccc(/C=C/C(=O)N4CCCCC4)c3c2)cc1NS(=O)(=O)c1ccc(F)cc1F [8g, (E)-2,4-difluoro-N-(2-methoxy-5-(4-(3-oxo-3-(piperidin-1-yl)prop-1-en-1-yl)quinolin-6-yl)pyridin-3-yl)benzenesulfonamide]	1300	2500	0.68						
COc1ncc(-c2ccc3nccc(/C=C/C(=O)N4CCN(C(C)C)CC4)c3c2)cc1NS(=O)(=O)c1ccc(F)cc1F [8j, (E)-2,4-difluoro-N-(5-(4-(3-(4-isopropylpiperazin-1-yl)-3-oxoprop-1-en-1-yl)quinolin-6-yl)-2-methoxypyridin-3-yl)benzenesulfonamide]	970	880	1.9						
COCCNC(=O)/C=C/c1ccnc2ccc(-c3cnc(OC)c(NS(=O)(=O)c4ccc(F)cc4F)c3)cc12 [8b, (E)-3-(6-(5-((2,4-difluorophenyl)sulfonamido)-6-methoxypyridin-3-yl)quinolin-4-yl)-N-(2-methoxyethyl)acrylamide]	1130	840	2.03						
